# Earlier results in US20180221315A1, “COMBINATION THERAPY USING ACAMPROSATE AND D-CYCLOSERINE” (Confluence Pharmaceuticals, LLC, priority 2015, published 2018).
# How the values were obtained:
# [1] = system: cognitive impairment produced by hippocampal lesions, anticholinergic agents, and early social deprivation; conditions: single dose
# [2] = molecular target: NR1 NMDA receptor subunit (strychnine-insensitive glycine binding site) (Homo sapiens, UniProt Q05586); conditions: partial agonist at glycine site of NMDA receptor; relative to glycine alone
# [3] = system: extinction of conditioned fear, maze tasks, visual recognition memory
smiles,measurement,setting,value
"N[C@@H]1CONC1=O [DCS, D-4-amino-3-isoxazolidone]",effect on cognitive impairment in animal models,[1],reversed cognitive impairment
same,"receptor activation, level of maximum stimulation during exposure to glycine alone",[2],40-50%
same,effect on learning and memory in healthy animals,[3],"enhanced extinction of conditioned fear, performance on maze tasks, and visual recognition memory"
